For series [1], the target named is T1, KDR (Homo sapiens, UniProt P35968). The series is described as follows: KDR autophosphorylation inhibitory activity (general statement).
Target sequence in this assay (P35968 20-1356): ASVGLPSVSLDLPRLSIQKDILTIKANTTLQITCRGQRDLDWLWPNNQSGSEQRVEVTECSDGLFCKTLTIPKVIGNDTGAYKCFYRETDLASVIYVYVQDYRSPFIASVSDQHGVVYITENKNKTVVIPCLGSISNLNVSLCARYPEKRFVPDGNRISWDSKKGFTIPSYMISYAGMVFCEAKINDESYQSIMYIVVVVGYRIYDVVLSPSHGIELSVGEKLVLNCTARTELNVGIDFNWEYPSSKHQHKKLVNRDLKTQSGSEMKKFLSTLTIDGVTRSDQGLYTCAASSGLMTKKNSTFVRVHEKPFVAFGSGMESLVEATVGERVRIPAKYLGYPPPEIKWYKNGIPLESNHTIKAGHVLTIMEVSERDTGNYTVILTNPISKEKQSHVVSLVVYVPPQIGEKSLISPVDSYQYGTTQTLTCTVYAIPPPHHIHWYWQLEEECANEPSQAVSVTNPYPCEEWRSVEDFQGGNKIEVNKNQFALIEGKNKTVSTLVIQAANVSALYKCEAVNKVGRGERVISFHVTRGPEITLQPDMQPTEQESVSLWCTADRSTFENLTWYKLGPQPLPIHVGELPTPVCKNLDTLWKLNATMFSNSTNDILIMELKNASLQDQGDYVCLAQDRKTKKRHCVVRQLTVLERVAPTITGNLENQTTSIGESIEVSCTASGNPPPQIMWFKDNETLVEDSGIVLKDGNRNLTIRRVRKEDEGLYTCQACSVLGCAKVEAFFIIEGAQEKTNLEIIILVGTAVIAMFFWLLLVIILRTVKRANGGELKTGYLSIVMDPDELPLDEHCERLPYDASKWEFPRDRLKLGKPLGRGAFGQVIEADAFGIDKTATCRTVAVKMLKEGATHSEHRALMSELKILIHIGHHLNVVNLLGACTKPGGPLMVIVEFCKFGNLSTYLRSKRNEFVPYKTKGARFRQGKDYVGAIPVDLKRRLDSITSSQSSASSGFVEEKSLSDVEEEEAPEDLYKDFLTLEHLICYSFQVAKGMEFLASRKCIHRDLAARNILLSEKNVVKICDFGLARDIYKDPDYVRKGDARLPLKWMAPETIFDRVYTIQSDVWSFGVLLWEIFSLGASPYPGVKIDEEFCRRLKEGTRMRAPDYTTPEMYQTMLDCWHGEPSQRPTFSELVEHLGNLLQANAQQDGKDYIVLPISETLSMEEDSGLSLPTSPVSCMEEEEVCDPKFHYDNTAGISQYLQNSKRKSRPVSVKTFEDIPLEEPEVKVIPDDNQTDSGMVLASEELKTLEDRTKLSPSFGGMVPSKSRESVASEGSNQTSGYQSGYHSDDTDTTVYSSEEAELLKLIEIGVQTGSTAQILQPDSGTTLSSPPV
Series [2] concerns the target T2, c-Met (Homo sapiens, UniProt P08581). The series is described as follows: c-Met autophosphorylation inhibitory activity (general statement).
Target sequence in this assay (P08581 25-1390): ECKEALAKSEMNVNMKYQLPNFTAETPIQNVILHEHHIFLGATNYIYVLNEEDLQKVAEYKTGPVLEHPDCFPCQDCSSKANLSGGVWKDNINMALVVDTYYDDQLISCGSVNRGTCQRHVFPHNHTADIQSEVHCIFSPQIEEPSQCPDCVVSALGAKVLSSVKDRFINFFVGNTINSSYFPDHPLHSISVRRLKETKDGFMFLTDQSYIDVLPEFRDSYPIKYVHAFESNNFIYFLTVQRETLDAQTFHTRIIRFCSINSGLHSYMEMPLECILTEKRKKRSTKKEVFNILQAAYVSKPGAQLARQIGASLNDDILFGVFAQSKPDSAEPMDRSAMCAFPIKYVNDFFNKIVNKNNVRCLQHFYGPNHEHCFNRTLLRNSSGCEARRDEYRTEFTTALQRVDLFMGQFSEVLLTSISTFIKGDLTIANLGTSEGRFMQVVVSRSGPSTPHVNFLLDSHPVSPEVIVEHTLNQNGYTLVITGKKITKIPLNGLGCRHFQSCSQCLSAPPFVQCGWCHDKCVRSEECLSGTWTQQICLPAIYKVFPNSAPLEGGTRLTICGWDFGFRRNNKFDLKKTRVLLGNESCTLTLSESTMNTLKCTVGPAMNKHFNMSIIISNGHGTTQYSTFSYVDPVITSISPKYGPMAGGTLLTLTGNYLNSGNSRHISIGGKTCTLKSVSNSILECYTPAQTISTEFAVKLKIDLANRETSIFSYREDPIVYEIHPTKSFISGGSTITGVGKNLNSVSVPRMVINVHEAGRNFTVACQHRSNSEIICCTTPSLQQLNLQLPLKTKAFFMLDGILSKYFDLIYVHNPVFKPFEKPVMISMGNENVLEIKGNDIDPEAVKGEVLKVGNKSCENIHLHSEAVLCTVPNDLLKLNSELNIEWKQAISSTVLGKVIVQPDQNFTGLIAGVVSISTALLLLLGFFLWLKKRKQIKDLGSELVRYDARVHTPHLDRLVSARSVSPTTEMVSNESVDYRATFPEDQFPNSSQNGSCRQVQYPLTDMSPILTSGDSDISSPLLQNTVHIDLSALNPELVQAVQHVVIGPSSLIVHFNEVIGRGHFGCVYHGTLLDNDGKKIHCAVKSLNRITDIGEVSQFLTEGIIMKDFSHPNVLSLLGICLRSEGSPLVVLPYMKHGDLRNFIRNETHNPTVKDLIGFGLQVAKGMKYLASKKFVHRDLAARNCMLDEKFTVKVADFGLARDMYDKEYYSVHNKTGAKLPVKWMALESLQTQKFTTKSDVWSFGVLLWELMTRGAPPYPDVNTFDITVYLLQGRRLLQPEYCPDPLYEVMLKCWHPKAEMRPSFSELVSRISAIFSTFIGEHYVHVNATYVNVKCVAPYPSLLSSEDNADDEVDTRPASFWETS
Series [3] is described as follows: Human liver microsome test. The note with it: data not shown. The format is in vitro ADME.
Series [4] addresses T1, KDR. As to the kind of experiment: KDR autophosphorylation inhibition in HUVEC, VEGF stimulated. Particulars: 50 ng/ml VEGF. Also noted: endogenous in cells; host or cells: HUVEC. The format is cell-based. The source says:
(§1) MKN45 (human poorly differentiated gastric cancer cell line, Riken) and A431 (human epithelioid cancer cell line, JCRB) were used for the measurement of c-Met autophosphorylation inhibition, and HUVEC (human vascular endothelial cells, KURABO INDUSTRIES LTD.) was used for the measurement of KDR autophosphorylation inhibitory activity.
HUVEC was inoculated into an EGM medium (KURABO INDUSTRIES LTD.) so that the number of cells was 2×10^6/100-mm Petri dish (Collagen coated Dish, 4020-010, IWAKI), and, 24 hr after the inoculation, the EGM medium was replace with an EBM medium containing 0.5% fetal calf serum (KURABO INDUSTRIES LTD.). Compound A was added, and the mixture was incubated for 90 min. After stimulation with 50 ng/ml of VEGF (100-20, PeproTech, Inc.) for 5 min, the culture was removed. The residue was subjected to immunoprecipitation with a KDR antibody (Flk-1, C-1158, Santa Cruz) by the above c-Met autophosphorylation inhibitory activity measuring method, followed by SDS-PAGE to measure KDR autophosphorylation inhibitory activity.
Target sequence in this assay (P35968 20-1356): as the sequence (P35968 20-1356) above

The target in series [5] is T2, c-Met. The series is described as follows: c-Met autophosphorylation inhibition in culture cells MKN45 (immunoprecipitation/blot). The format is cell-based. More on the design: endogenous in cells; host or cells: MKN45.
Source text: as §1
(§2) MKN45 (2.5×10^5/well) or A431 (8.5×10^5/well) was inoculated into wells, containing RPMI (GIBCO) containing 0.1% fetal calf serum (JRH Biosciences), in a 6-well plate (Collagen Type I coated Plate, 4810-010, IWAKI), and, 24 hr after the inoculation, the medium was replaced with an RPMI medium containing 0.10% fetal calf serum. Thereafter, compound A was added, followed by incubation for 90 min under conditions of 37° C. and 5% CO2. The culture was removed without stimulation for MKN45 and after stimulation for 10 min with 50 ng/ml HGF (294-HG, R&D SYSTEMS) for A431. A solubilizing buffer solution (20 mM HEPES (pH 7.4), 150 mM NaCl, 0.2% TritonX-100, […], 5 mM sodium orthovanadylate, 5 mM disodium ethylenediaminetetraacetate, and 2 mM Na4P2O7) (500 μl/well) was added to satisfactorily solubilize the cells. […] The film was quantified by Scion Image, and the IC50 value was determined with an analysis software Graph Pad Prism Ver.4 (Graph Pad Software, Inc.).
Target sequence in this assay (P08581 25-1390): as the sequence (P08581 25-1390) above

For series [6], the target named is T1, KDR. As to the kind of experiment: KDR enzyme inhibitory activity (32P-ATP, SDS-PAGE). The format is biochemical. More on the design: The KDR protein (812-1346AA) was prepared from SF21 insect cells; made in house; host or cells: SF21 insect cells (Bac to Bac baculovirus system). As to the method: (§3) c-Met protein (upstate, Lot: 25735AU, catalog code 14-526) was diluted with EDB (20 mM MOPS (pH 7.0), 1 mM EDTA, 0.01% Brij 35, 5% glycerol, 0.1% β-mercaptoethanol, and 1 mg/ml BSA) to 10 ng/μl. The KDR protein (812-1346AA) was prepared from SF21 insect cells (affinity purification, 12.4 μg/μl) according to the protocol of Invitrogen (Bac to Bac (tradename) baculovirus expression system) and was diluted with EDB to 248 ng/μl. A five-fold concentration of a reaction buffer (40 mM MOPS (pH 7.4), 1 mM EDTA) (5 μl), a ten-fold concentration of compound A (5 μl), 250 mM MnCl2 (2.5 μl), sterilized distilled water (2.5 μl), c-Met protein or KDR protein (5 μl) was mixed thereinto under ice cooling. An ATP reaction solution (25 mM ATP, 10 μci/μl γ-^32P-ATP (1 μl), 25 mM Mg (OAc)2, and 1.25 mM Hepes (pH7.4)) (10 μl) was added, and the mixture was allowed to react at 37° C. for 10 min. A tris-SDS β-ME sample treatment liquid (301780, Daiichi Kagaku Inc.) (10 μl) was added to stop the reaction. The reaction solution was boiled at 95° C. for 5 min and was then subjected to SDS-PAGE. The gel after the migration was packed, and an imaging plate (Fuji Film) was applied to the gel for transfer, followed by analysis with Typhoon (Amersham Biosciences). The IC50 value was calculated with a software for analysis Graph Pad Prism Ver.4 (Graph Pad Software, Inc.).
Target sequence in this assay (P35968 812-1346): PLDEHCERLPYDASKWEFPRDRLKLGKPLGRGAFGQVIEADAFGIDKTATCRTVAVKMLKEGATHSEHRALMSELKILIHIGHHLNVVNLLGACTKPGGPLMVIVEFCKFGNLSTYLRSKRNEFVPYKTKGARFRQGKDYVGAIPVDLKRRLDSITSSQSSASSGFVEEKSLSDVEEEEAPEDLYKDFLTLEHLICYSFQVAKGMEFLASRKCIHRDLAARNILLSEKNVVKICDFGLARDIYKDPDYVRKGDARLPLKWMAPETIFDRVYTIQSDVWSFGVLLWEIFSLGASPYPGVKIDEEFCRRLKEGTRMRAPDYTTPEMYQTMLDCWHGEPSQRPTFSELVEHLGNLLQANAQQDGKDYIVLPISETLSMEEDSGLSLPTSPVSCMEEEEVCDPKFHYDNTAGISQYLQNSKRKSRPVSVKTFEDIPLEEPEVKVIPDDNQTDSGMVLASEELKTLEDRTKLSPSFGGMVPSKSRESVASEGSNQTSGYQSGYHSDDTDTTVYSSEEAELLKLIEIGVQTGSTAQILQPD

Series [7] has as its system Human gastric cancer cell line NU-GC-4. The series is described as follows: Tumor growth inhibitory activity against human gastric cancer cell line NU-GC-4 in nude mice. Type of series: in vivo. The note with it: 25 mg/kg oral once a day, 10th day. How it is done:
Human gastric cancer cell line NU-GC-4 (available from Cell Resource Center for Biomedical Research, Institute of Development Aging and Cancer, Tohoku University) is transplanted into nude mice. When the tumor volume becomes about 100 mm^3, the mice are grouped so that the groups each consist of four mice and have an even average tumor volume. The test compound suspended in 0.5% methylcellulose is orally administered once a day for 9 days.
Only 0.5% methylcellulose is administered to the control group in the same manner as in the test groups. The tumor growth inhibition rate (TGIR) is calculated as follows: The tumor growth inhibition rate (TGIR)=(1−TX/CX)×100 wherein CX represents the volume of tumor at day X for the control group and TX represents the volume of tumor for test compound administration groups, when the tumor volume at the day of the start of the administration is presumed to be 1.

The target in series [8] is T2, c-Met. The series is described as follows: c-Met autophosphorylation inhibition in culture cells A431, HGF stimulated (immunoprecipitation/blot). The format is cell-based. Also noted: endogenous in cells. The note with it: 50 ng/ml HGF.
Source text: as §1, §2
Target sequence in this assay (P08581 25-1390): as the sequence (P08581 25-1390) above

The subject of series [9] is mouse lower limb bone growth plate. As to the kind of experiment: Influence on mouse lower limb bone growth plate. Type of series: in vivo. The note with it: nude mice, 50 mg/kg oral once a day for 4 weeks. As to the method:
Nude mice (BALB-nu/nu, female, four weeks old, Charles River Japan, Inc.) were preliminarily raised for one week, and the mice were grouped so that each group consisted of 8 mice. Compound A (50 mg/kg) suspended in 0.5% methylcellulose was orally administered once a day for 4 weeks to the compound A group. On the other hand, 0.5% methylcellulose was administered to the control group in the same manner as in the compound A group.
On the 29th day after the initiation of the administration, the animals were killed from ether anesthesia. A lower limb bone around the knee region was removed, was fixed in buffer formalin, was deashed and was then subjected to paraffin embedding. A thin sliced sample was dyed with HE, and the knee bone was photographed, and whether or not thickening of the bone growth plate occurs was quantitatively determined with an image analysis software (WinROOF Ver5, MITANI CORPORATION).

Series [10] has as its target T2, c-Met. As to the kind of experiment: c-Met enzyme inhibitory activity (32P-ATP, SDS-PAGE). Also noted: purchased upstate 14-526. Type of series: biochemical. How it is done:
as §3
Target sequence in this assay (P08581 974-1390 limits assumed): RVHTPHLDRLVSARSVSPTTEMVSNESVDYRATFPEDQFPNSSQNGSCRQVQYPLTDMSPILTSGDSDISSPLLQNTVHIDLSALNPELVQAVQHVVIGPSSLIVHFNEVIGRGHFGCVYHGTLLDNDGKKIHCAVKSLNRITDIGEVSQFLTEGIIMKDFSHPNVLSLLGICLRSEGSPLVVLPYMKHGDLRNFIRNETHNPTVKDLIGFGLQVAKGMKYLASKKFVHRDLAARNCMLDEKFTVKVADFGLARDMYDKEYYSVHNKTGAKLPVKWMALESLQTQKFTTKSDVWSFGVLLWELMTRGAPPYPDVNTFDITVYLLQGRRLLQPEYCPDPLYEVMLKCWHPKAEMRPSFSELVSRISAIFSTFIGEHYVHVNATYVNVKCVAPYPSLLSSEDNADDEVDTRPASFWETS

This note sets out measurements from patent US20090270391A1, “THIENOPYRIDINE DERIVATIVE, OR QUINOLINE DERIVATIVE, OR QUINAZOLINE DERIVATIVE, HAVING c-MET AUTOPHOSPHORYLATION INHIBITING POTENCY” (Kirin Pharma Kabushiki Kaisha, priority 2005, published 2009).

A word on the IC50: it is the concentration needed to halve the response being measured. A high value points to weaker potency in that assay. For the molecule `COc1cc(Oc2ccnc3cc(OC)c(OC)cc23)ccc1NC(=S)NC(=O)Cc1ccc(F)cc1` [Compound A, N-[4-{(6,7-dimethoxy-4-quinolyl)oxy}-2-methoxyphenyl]-N′-[2-(4-fluorophenyl)acetyl]thiourea], at KDR [1], the “KDR autophosphorylation inhibitory activity” value is recorded as “low”. On c-Met [2], the “c-Met autophosphorylation inhibitory activity” value was “high”. For the same molecule, the metabolic rate result in series [3] is “proper metabolic rate”. The IC50 at KDR [4] was ≥ 1000 nM; against c-Met [5] (c-Met (MKN45), without stimulation) it was 11.3 nM; against KDR [6], ≥ 1000 nM; against c-Met [8], 9.3 nM; at c-Met [10] it was 15.5 nM. Also, on c-Met [5] (c-Met versus KDR autophosphorylation in culture cells), the c-Met/KDR selectivity result was “high”. Besides, the “TGIR (tumor growth inhibition rate)” value in series [7] is 78%. For the same molecule, the “thickening of the bone growth plate” value in series [9] was “did not induce the thickening of the bone growth plate”. Also, the “bone growth plate area” value in [9] (versus control group) is listed as “no significant difference”.
